Test results taken from US5814634A, “Alkylenediamine derivative anti-ulcer drug and antibacterial drug” (Shiseido Co. Ltd., priority 1996, dated 1998).

What was measured:
stress ulcer = experiment: WIS: Restraint and Water Immersion Stress-Induced Ulcer Inhibition Test; assay type: in vivo, rat (male Crj:SD or Slc:SD); settings: 100 mg/kg oral, rats, water immersion stress 7 hours
Procedure, shortened: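 Fasted male SD rats (6–7 weeks, 5–8 per group) received compound orally at 100 mg/kg in 0.3% CMC-Na or 0.05% Tween 80; 10 min later, restraint with water immersion (21 °C) for 7 h. Summed glandular erosion length gave the ulcer index; inhibition (%) versus vehicle controls.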

gastric mucosa = experiment: PD: Gastric Mucosal Integrity Test (gastric mucosal potential difference); assay type: in vivo, rat (male Crj:SD); parameters: key: 5: Same as the control with no recognizable damage at all.; 4: Though a slight PD-decreasing tendency suggesting a slight possibility of mucosal damage is found, there is no problem.; 3: Though a weak decrease in PD and a possibility of a weak mucosal damage is recognized, there is no substantial problem.; 2: Medium degree of decrease in PD is found and a mucosal damage is recognized.; 1: Heavy degree of decrease in PD is found and a remarkable mucosal damage is recognized; settings: 100 mg/kg into chamber, rats, 60 minutes
Description: PD: Gastric Mucosal Integrity Test
In this case, since the sample compound has a necrotizing effect, it is inappropriate as an anti-ulcer medicament.
Therefore, the gastric mucosal potential difference (PD), which reflects the integrity of the gastric mucosa, is measured so as to confirm that the sample compound has no damaging effect on gastric mucosa, which is toxicity at gastric mucosal level.
Male Crj:SD rats (7 to 8-week-old) were fasted overnight, but allowed free access to water, and then, under urethane anesthesia (1.25 g/kg, i.p.), fixed to a cork board on its back. The abdomen of each rat was incised, and a small incision was made in the forestomach. Then, the inside of the stomach was washed with physiological saline heated at 37° C. From the forestomach, along the greater curvature thereof, the stomach was incised without damaging blood vessels. After the height of the cork board was adjusted on a jack, the stomach was mounted on ex vivo chamber. The area of the gastric mucosa exposed to the inside of this chamber was 2.5 cm^2. The inside of the chamber was perfused with physiological saline warmed at 37° C. by micro tube pump. By using an agar bridge containing 3M KCl, the potential difference between the chamber and the abdominal cavity was measured by a PD meter. Here, the rectal temperature was measured to control the body temperature during the experiment. After the PD was sufficiently stabilized, the perfusate was stopped and then 100 mg/10 ml/kg of the sample compound dissolved or suspended in an aqueous solution of 0.5% sodium carboxymethyl cellulose or 0.05% Tween 80 was administered into the chamber, while PD was recorded for 60 minutes. To a control, the vehicle was administered.
The change in PD during 60 minutes after the administration of 100 mg/kg of the sample compound was collectively studied and, with reference to the positive control, classified into 5 levels as follows:
5: Same as the control with no recognizable damage at all.
3: Though a weak decrease in PD and a possibility of a weak mucosal damage is recognized, there is no substantial problem.
2: Medium degree of decrease in PD is found and a mucosal damage is recognized.
1: Heavy degree of decrease in PD is found and a remarkable mucosal damage is recognized.

Compound	WIS: ulcer formation inhibitory rate (stress ulcer)	PD: change in gastric mucosal potential difference, 5 levels (gastric mucosa)
CC(C)=CCC/C(C)=C/COc1ccc(C(=O)NCCN2CCOCC2)cc1 [Example 31]	54%	3
CC(C)=CCOc1ccc(C(=O)NCCN2CCOCC2)cc1OCC=C(C)C [Example 35]	48%	5
CC(C)=CCOc1ccc(C(=O)NCCN2CCOCC2)cc1 [Example 28]	64%	5
